Earlier results, collected in publication PMC2817966 (Journal of chemical information and modeling, 2009).

Columns and labels:
[1] = system: Tyr181Cys variant
[2] = system: WT HIV-1

Row | Structure (SMILES) | IC50 ([1]; read-out: IC50 against Tyr181Cys variant) | IC50 ([2]; read-out: IC50 against WT HIV) | activity towards a Y181C variant [1] | potency towards WT HIV-1 [2]
1 | Cc1cc(C)cc(Oc2c(CSCc3ccco3)c(C)[nH]c(=O)c2I)c1 [Compound R221239] | 5 nM | 2 nM |  | 
2 | CC(Sc1nc(N)cc(Cl)n1)c1cc2ccoc2cn1 (single isomer, unassigned; (-)) [PNU142721, (-)-6-Chloro-2-[(1-furo[2,3-c]pyridin-5-ylethyl)thio]-4-pyrimidinamine] |  |  | 1 µM | 1 nM
